Literature values as cited in US20210059976A1, “ORAL PHARMACEUTICAL FORMULATION COMPRISING CANNABINOIDS AND POLOXAMER” (GW Research Limited, priority 2018, published 2021).
Where two headings read alike, the source gives them in different places.

Columns and labels:
[1] = system: acute experimental models of generalized seizure
[2] = 20 mg oral administration, man

In the case of `C=C(C)[C@@H]1CCC(C)=C[C@H]1c1c(O)cc(CCCCC)cc1O` [CBD, cannabidiol], the Oral bioavailability is given as “low and unpredictable” and the “efficacy in acute experimental models of generalized seizure” value ([1]; 100 mg/kg, but not 1 or 10 mg/kg) is given as “efficacious”.
For `CCCCCc1cc(O)c2c(c1)OC(C)(C)[C@@H]1CCC(C)=C[C@@H]21` [THC, tetrahydrocannabinol], the “efficacy in acute experimental models of generalized seizure” value ([1]; between 1.25 and 10 mg/kg) is listed as “efficacious” and the somnolence [2] is listed as “induces somnolence”.
